Here are results for 71 compounds from PubChem BioAssay AID179 (DTP/NCI, 2004).

The subject of this assay is CEM cells HIV-1 protection, formazan growth assay. As to the kind of experiment: NCI AIDS Antiviral Assay. The settings on record: for IC50: measured here: growth of uninfected CEM cells. An outline of the steps:
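Screen of anti-HIV-1 activity in human CEM cells using a formazan-based growth measurement at five drug concentrations. Hits with 50% or greater protection were repeated, and confirmation required reproducible complete protection.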

Molecules are shown by their SMILES. Several values for one entry are separate records, joined by “and”; a condition that tells them apart may be missing. Equal entries are not always repeated. Activity calls are given as the source filed them.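 Rule for the calls: active = compounds giving half or more protection of infected cells from virus-caused growth loss, again on retest; inactive = the rest.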 Where a SMILES comes first, the peptide text is derived from it.

Regarding `CCC(C)C(NC(=O)C(CCC(N)=O)NC(=O)C1CCCN1)C(=O)NC(C(=O)NC(CC(C)C)C(=O)O)C(C)O` (stereo not drawn) (H-PQITL-OH; configuration not given here), the result was inactive. Turning to `O=C(O)c1c(Br)c(Br)c(Br)c(Br)c1C1c2ccc(O)cc2Oc2cc(O)ccc21`, the half-maximal effective concentration (EC50) (as a rule, the concentration giving half of the maximal effect) was 2.95 µM and the half-maximal inhibitory concentration (IC50) – broadly, the concentration at which inhibition is half-maximal – was 174 µM. `O=c1nc(NC2CCCCO2)ccn1CCO` (stereo not drawn): the EC50 was greater than 1050 µM and the IC50 is greater than 1050 µM.

In the case of `N#CC1CC(c2cccs2)Nc2ccccc2N1` (stereo not drawn), the EC50 is greater than 141 µM and the 50% inhibitory concentration (IC50) was determined as 46.8 µM.

As for `O=C(N/N=C/c1cc(-c2ccccc2Cl)c(-c2ccccc2Cl)o1)c1ccncc1`, the EC50 was greater than 12 µM and the half-inhibitory concentration (IC50) was greater than 12 µM. Turning to `c1cc2nnc1SCCCSc1ccc(nn1)SCCCSc1ccc(nn1)SCCCS2`, the EC50 was greater than 100 µM and the IC50 was greater than 100 µM. For the compound `COC(=O)C(=O)C(C(C)=O)C(=O)C(=O)Nc1ccc(C)cc1C` (stereo not drawn), the EC50 is greater than 112 µM and the IC50 is greater than 112 µM. Turning to `FC1(F)ON2CCc3ccccc3C2[C@H]1c1ccccc1` (stereo partly drawn), the EC50 was greater than 200 µM and the IC50 was 15.5 µM. In the case of `Cc1nc(C)c(N2CCN(C(=O)NC(CCC(=O)O)C(=O)O)CC2)c(=O)[nH]1` (stereo not drawn), the EC50 is greater than 200 µM and the IC50 is greater than 200 µM.

Turning to `Nc1cc(F)c2cccnc2c1O`, the EC50 was greater than 200 µM and the IC50 was 11.7 µM. For `Cc1cn(C2CC(N=[N+]=[N-])C(COC(=O)CCCCCCCCCCOc3ccccc3)O2)c(=O)[nH]c1=O` (stereo not drawn), in that order: 0.0468 µM and 110 µM. For `Cc1ccnc(NC(=S)Nc2ccc([N+](=O)[O-])cc2)c1` the same measures were greater than 200 µM and greater than 200 µM.

As for `CCOc1ccccc1N=NC1C(=O)N(C(=O)CC(=O)Nc2ccccc2OC)N=C1C` (stereo not drawn), the EC50 is greater than 200 µM and the half-maximal inhibitory concentration (IC50) was greater than 200 µM. With `O=C1C2CCN(CC2)C1Cn1cnc2c(Cl)ncnc21` (stereo not drawn), the outcome was inactive. Take `COC1CN(C)C(=Nc2cccc3ccccc23)S1` (stereo not drawn): the EC50 is greater than 200 µM and the IC50 worked out at 112 µM. Consider `CCOc1ccc2nc(NC(=O)c3c/c(=N\NC(=O)C[N+](C)(C)C)c4ccc(O)cc4o3)sc2c1`, for which the EC50 was greater than 178 µM and the IC50 worked out at 2.24 µM.

Regarding `COC(OC)C1OCC(n2cc(F)c(=O)[nH]c2=O)C1O` (stereo not drawn), the EC50 was greater than 200 µM and the concentration for half-maximal inhibition (IC50) was greater than 200 µM. As for `Cc1ccc(S(=O)(=O)Nn2c(-c3ccccc3)c(C#N)c(-c3ccc([N+](=O)[O-])cc3)c(C#N)c2=O)cc1`, the EC50 is greater than 200 µM and the IC50 is 56.2 µM.

`C=C(C)C12CC3CC(/C(=N/O)C(C1)/C3=N\O)[C@@]2(C)O` (stereo partly drawn): the EC50 was greater than 355 µM and the half-inhibitory concentration (IC50) is greater than 355 µM. For the compound `O=C(O)C1CCC(c2ccc(Oc3ccccc3)cc2)N1` (stereo not drawn), the EC50 is greater than 200 µM and the half-maximal inhibitory concentration (IC50) was greater than 200 µM. With `COc1ccccc1C(=O)NCC1CCCN2CCCCC12` (stereo not drawn), the EC50 is greater than 200 µM and the IC50 was greater than 200 µM.

With `COC(=O)C1=C(O)c2ccc(Cl)cc2S(=O)(=O)N1C`, the EC50 is greater than 200 µM and the IC50 was 87.1 µM.

As for `CC(=O)OC1C=C2c3cc4c(c(O)c3C(=O)NC2[C@H](OC(C)=O)[C@@H]1OC(C)=O)OCO4` (stereo partly drawn), the result was inactive.

With `CC(=O)NNc1nc(C)c(C(/C=C/c2ccc(Cl)cc2)=N/NC(=O)C[N+](C)(C)C)s1`, the EC50 is greater than 14.8 µM and the IC50 is greater than 14.8 µM.

For `O=C(Cc1ccccc1)NNc1nc(NNC(=O)c2ccncc2)nc(Nc2ccc(Cl)cc2)n1`, the EC50 was greater than 100 µM and the IC50 was greater than 100 µM. With `C=C=C(C)C(=O)N(C(C)C)C(C)C`, the EC50 is greater than 200 µM and the half-maximal inhibitory concentration (IC50) was greater than 200 µM. As for `c1ccc2c(c1)Nc1nc3nonc3nc1N2`, the EC50 is greater than 200 µM and the half-inhibitory concentration (IC50) is greater than 200 µM. As for `Cn1c2ccccc2c(=NNc2cccc(C(=O)O)c2)c2ccccc21`, the EC50 was greater than 200 µM and the concentration for half-maximal inhibition (IC50) was 3.8 µM.

`CCN(CC)C(=O)c1cc(=O)c(C)c2oc3c(C)c(O)c(N)c(C(=O)N(CC)CC)c3nc1-2`: the EC50 is greater than 200 µM and the IC50 stood at 110 µM.

Take `CC(C)C1=CC23CCC4C(C)(C(=O)O)CCCC4(C)C2CC1C1C(=O)N(c2ccc(Cc4ccc(N5C(=O)C6C7CC8C9(C)CCCC(C)(C(=O)O)C9CCC8(C=C7C(C)C)C6C5=O)cc4)cc2)C(=O)C13` (stereo not drawn): the EC50 is greater than 35.5 µM and the half-maximal inhibitory concentration (IC50) turned out to be 13.8 µM. Take `Cc1cccc(C)c1N1C(=O)C2c3[nH]c4ccccc4c3C3CCC(C(C)(C)C)CC3C2C1=O` (stereo not drawn): the EC50 was greater than 200 µM and the IC50 worked out at 12.3 µM. Regarding `C=C1CN(S(=O)(=O)c2ccc(C)cc2)CCCN(Cc2cccs2)CCCN(S(=O)(=O)c2ccc(C)cc2)C1`, the EC50 was greater than 200 µM and the IC50 worked out at 70.8 µM.

On to `c1cc(CSSCc2ccncc2)ccn1`, for which the EC50 was greater than 200 µM and the concentration for half-maximal inhibition (IC50) worked out at 0.891 µM. For `CC1C(C)(C)C23CC12C1(OCCO1)C3Br` (stereo not drawn), in that order: greater than 200 µM and greater than 200 µM. For `CC(=O)Nc1ccc(C(=O)NN2C(=O)C(Cl)C2c2ccccc2O)cc1` (stereo not drawn), in that order: greater than 200 µM and 31.6 µM.

With `CCC1([N+](=O)[O-])CN(N=O)C1`, the EC50 was greater than 200 µM and the half-maximal inhibitory concentration (IC50) was greater than 200 µM. Regarding `O=C1CNc2cc(N3CCN(c4ccccc4)CC3)ccc2N1`, the EC50 was greater than 200 µM and the IC50 was determined as 25.1 µM. For `O=C1CCCCCCC2=C1C(Sc1ccccc1)CC2` (stereo not drawn), the EC50 is greater than 200 µM and the IC50 was determined as 30.9 µM.

Consider `C[N+](C)(C)CCS(=O)(=O)[O-]`, for which the EC50 was greater than 200 µM and the 50% inhibitory concentration (IC50) was greater than 200 µM.

In the case of `CC(=O)OC(C)(C)c1ccc2c(c1)C(=O)C[C@@H]1[C@](C)(C#N)CCC[C@]21C`, the EC50 is greater than 200 µM and the IC50 is 126 µM.

Regarding `CC/C(=C/OC)P1(=O)OC(C)(C)CN1C(C)(C)C` (stereo not drawn), the EC50 was greater than 200 µM and the IC50 came out at 151 µM.

For `CCN(CC)C1C=CCC2C1S(=O)(=O)C2(C)C` (stereo not drawn), the EC50 was greater than 977 µM and the concentration for half-maximal inhibition (IC50) is greater than 977 µM. Turning to `COc1ccc2nc3cc([N+](=O)[O-])ccc3c(NNc3ccc(Cl)cc3)c2c1`, the EC50 was greater than 200 µM and the IC50 amounted to 33.1 µM.

Regarding `COC(=O)c1ccccc1CC1Cc2cc3c(cc2C1=O)CCC3` (stereo not drawn), the EC50 was greater than 200 µM and the IC50 came to 7.59 µM. Consider `O=[N+]([O-])c1ccccc1SSc1ccccc1[N+](=O)[O-]`, for which the EC50 was greater than 12.3 µM, the result was inactive and the 50% inhibitory concentration (IC50) is 7.41 µM. For `CC1=Nc2ccccc2SC2(C1)C(C1COC(C)(C)O1)OC1OC(C)(C)OC12` (stereo not drawn), the EC50 was greater than 74.1 µM and the IC50 came to 63.1 µM.

For the compound `CC(NNC(=O)c1ccncc1)c1ccccc1` (stereo not drawn), the EC50 is greater than 200 µM and the 50% inhibitory concentration (IC50) was 75.9 µM. For `O=c1c(C=Nc2ccc([N+](=O)[O-])cc2)c(O)n(-c2ccccc2)c(=O)n1-c1ccccc1` the same measures were greater than 200 µM and 21.4 µM.

As to `CC[C@@H]1ON(C)[C@H]2CN(C)C(=O)[C@@H]12`, the EC50 was greater than 200 µM and the 50% inhibitory concentration (IC50) was greater than 200 µM.

`CSCCC(NC(=O)Cc1ccc(C(=O)c2ccccc2)cc1)C(=O)O` (stereo not drawn): the EC50 was greater than 200 µM and the IC50 is greater than 200 µM.

As for `Cc1ccc(S(=O)(=O)c2ccc([N+](=O)[O-])o2)cc1`, the EC50 was 0.02 µM and the IC50 came to 0.0631 µM. For `O=c1c(-c2ccccc2)c(SCCO)n(-c2ccccc2)c(=S)n1-c1ccccc1`, in that order: greater than 200 µM and greater than 200 µM. For `Cc1c2oc(=O)c(C#N)cc2c2ccccn12`, in that order: greater than 200 µM and greater than 200 µM. For `COc1ccc(COC(=O)NCC(=O)NC(C)C(=O)NC(Cc2ccccc2)C(=O)OCc2ccccc2)cc1` (stereo not drawn), the EC50 is greater than 200 µM; the IC50 is 45.7 µM and 12.9 µM. As to `Cc1c2sc3ccccc3[nH]c2nc2[nH]c3ccccc3sc12`, the EC50 is greater than 38 µM and the IC50 turned out to be 14.8 µM.

`N#CC1(c2ccccc2)CCNCC1`: the EC50 was greater than 1120 µM and the 50% inhibitory concentration (IC50) worked out at 562 µM. For `COC(=O)CC[N+]1=CCC(c2ccccc2)(c2ccccc2)O1`, in that order: greater than 115 µM and 69.2 µM. For `CC(/C=N\NC(=S)N(C)C)=N/NC(=S)N(C)C` the same measures were greater than 2 µM and 0.347 µM.

As to `O=C(C[n+]1ccccc1)N/N=C(/CCC(=O)N(Cc1ccccc1)Cc1ccccc1)CC(=O)c1ccccc1`, the EC50 was greater than 437 µM and the IC50 was greater than 437 µM. Turning to `CC(=O)Oc1ccc(/C=C/C(=O)OCCOC(=O)/C=C/c2ccc(OC(C)=O)c(OC(C)=O)c2)cc1OC(C)=O`, the EC50 is greater than 20 µM and the IC50 was determined as 8.71 µM.

Take `C[C@@H]1[C@H](C)N1CC(O)Cn1ccnc1[N+](=O)[O-]` (stereo partly drawn): the EC50 was greater than 200 µM and the IC50 is greater than 200 µM. Turning to `O=C(O)/C(Cl)=C(Cl)/C=N/NC(=O)c1cc2ccccc2cc1O`, the EC50 is greater than 102 µM and the IC50 came out at 5.75 µM.

Regarding `CCOc1ccccc1NC(=O)C(=O)c1c(O)c2ccc(O)cc2oc1=O`, the EC50 is greater than 490 µM and the IC50 was 182 µM. In the case of `COc1ccc(CN2C(=O)C(=O)N(C)C2=O)c2ccccc12`, the EC50 was greater than 200 µM and the IC50 stood at 25.7 µM. For `Cc1cc(C)nc(NS(=O)(=O)c2ccc(Nc3c4ccccc4nc4c(C(=O)N5CCN(CCOS(C)(=O)=O)CC5)cccc34)cc2)n1`, the EC50 is greater than 42.7 µM and the concentration for half-maximal inhibition (IC50) was greater than 42.7 µM. For `O/N=C1\CCCC\C1=C/c1ccccc1`, the result was inactive.

Turning to `Cc1cc(=O)[nH]c2cc(NC(=O)C(CCCN=C(N)N)NC(=O)OCc3ccccc3)ccc12` (stereo not drawn), the EC50 is greater than 200 µM and the IC50 was greater than 200 µM. On to `[O-]c1on[n+]2c1CCCC2`, for which the outcome was inactive.

Regarding `CO/C(=N\Nc1ccc([N+](=O)[O-])cc1)P(=O)(OC(C)C)OC(C)C`, the EC50 was greater than 12.9 µM and the IC50 was greater than 12.9 µM. With `Cc1cn(C(C)OCCO)c(=O)[nH]c1=O` (stereo not drawn), the EC50 was greater than 200 µM and the half-maximal inhibitory concentration (IC50) is greater than 200 µM. Regarding `O=Cc1ccc2c(c1)CC1(Cc3ccccc3C1)C2`, the EC50 was greater than 200 µM and the half-inhibitory concentration (IC50) was 33.9 µM.
